From patent US8716260B2, “Use of S-adenosylmethionine, vitamin E, and vitamin C for the treatment of oxidative liver injury” (University of Manitoba, priority 2005, dated 2014)

Experiments:
Format in all cases: in vivo, rat
[1] = test system: Male Sprague-Dawley rats; assay: Rapid Insulin Sensitivity Test (RIST); conditions: for RIST index: TAA rats (TAA 200 mg.kg-1 i.p. 24 h before), control RIST, treatments i.p. 1 h post TAA; for RIST index post atropine: TAA rats, second RIST after atropine 0.1 mg.kg-1 i.v. (HISS-independent component)
Procedure: Surgical Preparation. Male Sprague-Dawley rats weighing 260-300 g from the University of Manitoba colony were maintained in the animal house under controlled conditions (22±1° C., 12 h light/12 h dark cycle). They were fed a standard rat chow diet with free access to water. All rats underwent a fasting period of 8 h and a refeeding phase of 2 h immediately before the start of surgical preparation. As HISS is only released in the fed state, the fasting-refeeding protocol assured a high level of HISS release in response to insulin. The rats were anaesthetized with an intraperitoneal injection of sodium pentobarbital (65 mg kg-1; Somnotol, MTC Pharmaceuticals, Ont). Maintained anesthesia was achieved throughout the experiment by a continuous infusion of pentobarbital sodium (0.5 mg.ml-1 saline given at 50 μl.min-1) through a cannula in the jugular vein, supplemented with a 0.65 mg (0.01 ml) bolus injection when required. The rats were placed on a temperature-controlled surgical table (Harvard Apparatus, Kent, England) and rectal temperature was monitored and held at 37-37.5° C. Spontaneous respiration was allowed through a tracheal tube.
An arterial-venous shunt was established, as previous described (Lautt W W et al. Can J Physiol Pharmacol. 1998; 76(12): 1080-6.), for monitoring mean arterial blood pressure (MAP), blood glucose level and for drug delivery. Briefly, two catheters (polyethylene tubing PE60), one inserted into the right femoral artery and the other into the right femoral vein, were connected to the two openings of a three way vascular circuit consisting of a T tube connected with silicon tubing. The third opening of the circuit was connected to a pressure transducer for the recording of the shunt pressure which, when the silicon tubing toward the venous side of the circuit was closed by clamping, represented the systemic arterial blood pressure. Blood samples were taken from the arterial side of the shunt for the glucose measurement. Flowing blood within the shunt assures the real time measurement of the blood glucose concentration, which is essential for the euglycemic clamp test as mentioned below. An infusion line was inserted into the venous side of the loop for drug delivery. Another infusion line connected to the jugular vein was established for glucose infusion. Animals were heparinized (100 IU.kg-1) to prevent clotting in the vascular loop.
Rapid Insulin Sensitivity Test (RIST). The RIST was performed as previously described (Lautt W W et al. Can J Physiol Pharmacol. 1998; 76(12): 1080-6.). Briefly, following completion of surgery, animals were allowed a 30-min stabilization period. The baseline glucose levels were then determined by samples taken at 5-min intervals and continued until three successive stable determinations were made. The mean of these three data points is regarded as the baseline for the RIST. To perform the RIST, human insulin (50mU.kg-1 in 0.5 ml saline) was infused into the femoral vein at the rate of 0.1 ml.min-1 for 5-min. After 1-min of insulin infusion, the first test glucose sample was determined and a variable glucose infusion (10%) was initiated. Blood samples were taken every 2-min and the glucose infusion rate was adjusted accordingly to maintain euglycemia. The RIST index is the amount of glucose (mg.kg-1) infused, to maintain euglycemia, over the test period that terminated when no further glucose infusion was required (approximately 30 min). At the end of a RIST, the animal is at its pretest glycemic level.
(§1) Animal groups. Six groups of animals were established under the following treatments: (1): Normal control rats, treated with saline and corn oil injection at the dose of 2 and 1 ml.kg-1, respectively, n=12. (2): Normal rats, treated with Vitamin C, Vitamin E and SAMe, n=8. The dose for Vitamin C and Vitamin E were 100 and 200 mg.kg-1, respectively; for SAMe was 25 mg.kg-1. […]

[2] = test system: Male Sprague-Dawley rats; assay: Hepatic enzymes analysis (serum ALT and AST); conditions: TAA rats; effect on TAA-induced increases
Procedure: as §1, with “mg.kg-1. (3): Thioacetaminde (TAA) rats, given with intraperitoneal injection of TAA at the dose of 200 mg.kg-1, n=9. (4): TAA rats treated with Vitamin C+Vitamin E, n=11. (5): TAA rats with SAMe treatment, n=7. (6): TAA rats treated with Vitamin C+Vitamin E+SAMe, n=8. All compounds were administered by intraperitoneal injection (i. p.).” for “mg.kg-1.”
Protocol. […] Following the establishment of glucose baseline, the first RIST index was determined and this was regarded as the control RIST. […] The percentage contribution of HISS-dependent component to total insulin sensitivity was calculated as: % HISS=(RIST index in control−RIST index after atropine)/RIST index in control. […]
Hepatic enzymes analysis. Serum samples from rats in groups 1 to 6 were analyzed for alanine aminotransferase (ALT) and aspartate aminotransferase (AST) activities spectrophotometrically utilizing an Abbott analyzer and Diagnostic Chemicals Limited assay reagents (Charlottetown, P.E.I, Canada).

[3] = test system: Male Sprague-Dawley rats; assay: Liver histopathological examination; conditions: TAA rats; for Bridging Necrosis / Necrosis: score 0-3; for Inflammation: score 0-3 (normal-0, mild-1, moderate-2, severe-3), mean of 5 fields
Procedure: Six groups of animals were established under the following treatments: (1): Normal control rats, treated with saline and corn oil injection at the dose of 2 and 1 ml.kg-1, respectively, n=12. (2): Normal rats, treated with Vitamin C, Vitamin E and SAMe, n=8. The dose for Vitamin C and Vitamin E were 100 and 200 mg.kg-1, respectively; for SAMe was 25 mg.kg-1. (3): Thioacetaminde (TAA) rats, given with intraperitoneal injection of TAA at the dose of 200 mg.kg-1, n=9. (4): TAA rats treated with Vitamin C+Vitamin E, n=11. (5): TAA rats with SAMe treatment, n=7. (6): TAA rats treated with Vitamin C+Vitamin E+SAMe, n=8. All compounds were administered by intraperitoneal injection (i. p.). TAA was administered 24 h before the start of surgery, and all treatment with vitamins and SAMe were given 1 h post TAA administration.
The left liver lobe was excised and embedded in paraffin, sliced 7 μm in thickness, and stained with hematoxylin-eosin. The tissue slices were then analyzed with light microscopy. Histopathological analysis of the injured area was performed with a computerized video-imaging system (Image-Pro Plus. Media Cybernetics, Md., USA) by a pathologist (Y.F.) who was not aware of sample assignment to experimental group. The degree of injury, including inflammation, necrosis and bridging necrosis, was expressed as the mean of 5 different fields for each slide scaled as 0-3: normal-0, mild-1, moderate-2 and severe-3.

| SMILES | inhibition at 0.1 mg/kg ([1]; Rattus norvegicus, read-out: inhibition of insulin sensitivity) | RIST index after atropine ([1]; normal rats, atropine 0.1 mg.kg^−1) | RIST index [1] | RIST index post atropine [1] | Serum ALT and AST activities [2] | histological injury of liver [3] | Bridging Necrosis [3] | Necrosis [3] | Inflammation [3] |
| --- | --- | --- | --- | --- | --- | --- | --- | --- | --- |
| CN1[C@@H]2CC[C@H]1C[C@@H](OC(=O)C(CO)c1ccccc1)C2 (stereo partly shown) [Atropine, atropine] | 50 ± 2.1% | 82.7 ± 3.2 mg/kg |  |  |  |  |  |  |  |
| C[S+](CC[C@H](N)C(=O)O)C[C@H]1O[C@@H](n2cnc3c(N)ncnc32)[C@H](O)[C@@H]1O (stereo partly shown) [SAMe, S-adenosylmethionine] |  |  | 88.0 ± 4.1 mg/kg | 72.1 ± 3.5 mg/kg | did not prevent | slight reduction in histological injury | 0.09 ± 0.09 | 1.79 ± 0.15 # | 0.93 ± 0.13 |
| CC(=N)S [TAA, thioacetamide] |  |  | 75.5 ± 2.8 mg/kg | 69.0 ± 2.1 mg/kg | significant increase | massive hepatocytic necrosis | 1.17 ± 0.36 | 2.33 ± 0.17 | 1.50 ± 0.22 |
